Values quoted from earlier work as cited in patent US20090196935A1, “Pharmaceutical Capsules Comprising Extended Release Dipyridamole Pellets” (priority 2008, published 2009).

Legend:
[1] = in vivo
[2] = not given; remark: listed apart in the source

biological half-life [1]: less than one hour
solubility in acidic mediums (acidic mediums with a pH below 4): soluble
solubility in dilute acids (dilute acids): soluble
solubility in water (water): practically insoluble
solubility in water at a pH greater than 4 (water at a pH greater than 4): practically insoluble
solubility (weak base, medium not stated): poor solubility
pKa [2]: 6.1
SMILES: OCCN(CCO)c1nc(N2CCCCC2)c2nc(N(CCO)CCO)nc(N3CCCCC3)c2n1 [Dipyridamole, 2,6-bis-(diethanolamino)-4,8-dipiperidino-(5,4-d)-pyrimidine]
